Assay results reported in PubChem BioAssay (NCI).
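Assay format: 96-well plates, 48-hour exposure. Abbreviation: GI50, concentration required for 50% inhibition of growth. TGI: concentration producing complete growth inhibition.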

Legend:
Assay in all cases: DTP human tumour cell line panel, 48 h
[1] = test system: T-47D breast
[2] = test system: U251 CNS
[3] = test system: NCI/ADR-RES ovarian
[4] = test system: MDA-MB-231 breast
[5] = test system: NCI-H522 lung
[6] = test system: HOP-92 NSCLC
[7] = test system: HL-60(TB) leukemia
[8] = test system: IGROV1 ovarian
[9] = test system: SW-620 colon
[10] = test system: M14 melanoma
[11] = test system: KM12 colon
[12] = test system: K-562 leukemia
[13] = test system: COLO 205 colon
[14] = test system: HOP-62 NSCLC
[15] = test system: SK-OV-3 ovarian
[16] = test system: HT29 colon
[17] = test system: UACC-62 melanoma
[18] = test system: RXF 393 renal
[19] = test system: SNB-19 CNS
[20] = test system: TK-10 renal
[21] = test system: OVCAR-4 ovarian
[22] = test system: UO-31 renal
[23] = test system: ACHN renal
[24] = test system: A498 renal
[25] = test system: SF-268 CNS
[26] = test system: SN12C renal
[27] = test system: UACC-257 melanoma
[28] = test system: LOX IMVI melanoma
[29] = test system: HCC-2998 colon
[30] = test system: OVCAR-3 ovarian
[31] = test system: MDA-MB-435
[32] = test system: MCF7 breast
[33] = test system: NCI-H226 lung
[34] = test system: 786-0 renal
[35] = test system: HCT-116 colon
[36] = test system: MOLT-4 leukemia
[37] = test system: MALME-3M melanoma
[38] = test system: BT-549 breast
[39] = test system: PC-3 prostate
[40] = test system: CAKI-1 renal
[41] = test system: SF-539 CNS
[42] = test system: CCRF-CEM leukemia
[43] = test system: SR leukemia
[44] = test system: SK-MEL-28 melanoma
[45] = test system: OVCAR-5 ovarian
[46] = test system: EKVX NSCLC
[47] = test system: HS 578T breast
[48] = test system: SK-MEL-5 melanoma
[49] = test system: NCI-H23 lung
[50] = test system: HCT-15 colon
[51] = test system: DU-145 prostate
[52] = test system: A549 NSCLC
[53] = test system: SK-MEL-2 melanoma
[54] = test system: OVCAR-8 ovarian
[55] = test system: SF-295 CNS
[56] = test system: NCI-H460 lung

Q: How did the GI50 [1] turn out when `COC(=O)c1ccc(-c2nc3cc(F)c(F)cc3nc2C#N)cc1` was run?
A: The GI50 was 12.8 µM.

Q: What about the TGI [1] of the same compound?
A: The TGI was 32 µM.

Q: And the GI50 [2]?
A: Its GI50 is 10.1 µM.

Q: What about the TGI [2] of the same compound?
A: The TGI was 21.4 µM.

Q: And the GI50 [3]?
A: Its GI50 is 4.21 µM.

Q: What about the TGI [3] of the same compound?
A: The TGI was 10.4 µM.

Q: What about the GI50 [4] of the same compound?
A: The GI50 was 1.57 µM.

Q: What about the TGI [4] of the same compound?
A: Its TGI is 6.87 µM.

Q: What about the GI50 [5] of the same compound?
A: Its GI50 is 6.36 µM.

Q: And the TGI [5]?
A: The TGI was 35.4 µM.

Q: What about the GI50 [6] of the same compound?
A: The GI50 was 9.8 µM.

Q: What about the TGI [6] of the same compound?
A: Its TGI is 21.1 µM.

Q: And the GI50 [7]?
A: The GI50 was 3.23 µM.

Q: And the TGI [7]?
A: The TGI was 9.51 µM.

Q: What about the GI50 [8] of the same compound?
A: Its GI50 is 9.62 µM.

Q: And the TGI [8]?
A: Its TGI is 20.4 µM.

Q: And the GI50 [9]?
A: Its GI50 is 4.66 µM.

Q: And the TGI [9]?
A: The TGI was 16.8 µM.

Q: What about the GI50 [10] of the same compound?
A: Its GI50 is 8.28 µM.

Q: What about the TGI [10] of the same compound?
A: Its TGI is 18.9 µM.

Q: And the GI50 [11]?
A: The GI50 was 31.4 µM.

Q: And the TGI [11]?
A: Its TGI is 50 µM.

Q: What about the GI50 [12] of the same compound?
A: The GI50 was 1.9 µM.

Q: What about the TGI [12] of the same compound?
A: The TGI was 16.3 µM.

Q: What about the GI50 [13] of the same compound?
A: Its GI50 is 13 µM.

Q: And the TGI [13]?
A: Its TGI is 33.2 µM.

Q: What about the GI50 [14] of the same compound?
A: The GI50 was 9.9 µM.

Q: What about the TGI [14] of the same compound?
A: Its TGI is 18 µM.

Q: What about the GI50 [15] of the same compound?
A: Its GI50 is 9.77 µM.

Q: What about the TGI [15] of the same compound?
A: Its TGI is 17.2 µM.

Q: What about the GI50 [16] of the same compound?
A: Its GI50 is 11.1 µM.

Q: What about the TGI [16] of the same compound?
A: The TGI was 35.6 µM.

Q: What about the GI50 [17] of the same compound?
A: Its GI50 is 2.66 µM.

Q: And the TGI [17]?
A: The TGI was 5.83 µM.

Q: What about the GI50 [18] of the same compound?
A: The GI50 was 8.53 µM.

Q: And the TGI [18]?
A: Its TGI is 17.6 µM.

Q: What about the GI50 [19] of the same compound?
A: Its GI50 is 9.35 µM.

Q: What about the TGI [19] of the same compound?
A: The TGI was 17 µM.

Q: And the GI50 [20]?
A: Its GI50 is 17.4 µM.

Q: And the TGI [20]?
A: Its TGI is 42.2 µM.

Q: What about the GI50 [21] of the same compound?
A: The GI50 was 4.71 µM.

Q: And the TGI [21]?
A: Its TGI is 32.3 µM.

Q: What about the GI50 [22] of the same compound?
A: Its GI50 is 11.2 µM.

Q: And the TGI [22]?
A: The TGI was 33.5 µM.

Q: And the GI50 [23]?
A: The GI50 was 11.5 µM.

Q: And the TGI [23]?
A: The TGI was 26.3 µM.

Q: And the GI50 [24]?
A: Its GI50 is 14.4 µM.

Q: And the TGI [24]?
A: The TGI was 23.9 µM.

Q: What about the GI50 [25] of the same compound?
A: The GI50 was 1.5 µM.

Q: What about the TGI [25] of the same compound?
A: Its TGI is 4.64 µM.

Q: What about the GI50 [26] of the same compound?
A: The GI50 was 1.66 µM.

Q: What about the TGI [26] of the same compound?
A: Its TGI is 4.9 µM.

Q: And the GI50 [27]?
A: Its GI50 is 10.2 µM.

Q: What about the TGI [27] of the same compound?
A: Its TGI is 18.8 µM.

Q: And the GI50 [28]?
A: The GI50 was 0.948 µM.

Q: What about the TGI [28] of the same compound?
A: Its TGI is 1.79 µM.

Q: And the GI50 [29]?
A: The GI50 was 8.41 µM.

Q: And the TGI [29]?
A: Its TGI is 16.1 µM.

Q: And the GI50 [30]?
A: The GI50 was 1.71 µM.

Q: And the TGI [30]?
A: The TGI was 4.99 µM.

Q: And the GI50 [31]?
A: Its GI50 is 8.21 µM.

Q: And the TGI [31]?
A: Its TGI is 16.4 µM.

Q: What about the GI50 [32] of the same compound?
A: Its GI50 is 8.86 µM.

Q: What about the TGI [32] of the same compound?
A: The TGI was 23.6 µM.

Q: What about the GI50 [33] of the same compound?
A: The GI50 was 9.39 µM.

Q: And the TGI [33]?
A: The TGI was 21.4 µM.

Q: What about the GI50 [34] of the same compound?
A: The GI50 was 26.4 µM.

Q: And the TGI [34]?
A: Its TGI is 50 µM.

Q: And the GI50 [35]?
A: The GI50 was 7.84 µM.

Q: And the TGI [35]?
A: The TGI was 14.6 µM.

Q: What about the GI50 [36] of the same compound?
A: The GI50 was 3.27 µM.

Q: And the TGI [36]?
A: Its TGI is 12.3 µM.

Q: And the GI50 [37]?
A: Its GI50 is 7.64 µM.

Q: What about the TGI [37] of the same compound?
A: The TGI was 16.5 µM.

Q: And the GI50 [38]?
A: The GI50 was 8.24 µM.

Q: What about the TGI [38] of the same compound?
A: Its TGI is 16.6 µM.

Q: And the GI50 [39]?
A: Its GI50 is 11.7 µM.

Q: And the TGI [39]?
A: Its TGI is 26.6 µM.

Q: What about the GI50 [40] of the same compound?
A: The GI50 was 8.48 µM.

Q: What about the TGI [40] of the same compound?
A: The TGI was 18.5 µM.

Q: What about the GI50 [41] of the same compound?
A: Its GI50 is 10.7 µM.

Q: And the TGI [41]?
A: Its TGI is 18.7 µM.

Q: And the GI50 [42]?
A: Its GI50 is 2.27 µM.

Q: What about the TGI [42] of the same compound?
A: Its TGI is 18.7 µM.

Q: What about the GI50 [43] of the same compound?
A: The GI50 was 1.25 µM.

Q: And the TGI [43]?
A: Its TGI is 2.77 µM.

Q: What about the GI50 [44] of the same compound?
A: Its GI50 is 9.58 µM.

Q: And the TGI [44]?
A: Its TGI is 33.9 µM.

Q: And the GI50 [45]?
A: Its GI50 is 12.1 µM.

Q: And the TGI [45]?
A: The TGI was 32.6 µM.

Q: What about the GI50 [46] of the same compound?
A: Its GI50 is 9.89 µM.

Q: And the TGI [46]?
A: Its TGI is 19.5 µM.

Q: And the GI50 [47]?
A: Its GI50 is 1.57 µM.

Q: And the TGI [47]?
A: Its TGI is 4.79 µM.

Q: And the GI50 [48]?
A: Its GI50 is 6.87 µM.

Q: What about the TGI [48] of the same compound?
A: The TGI was 13.7 µM.

Q: What about the GI50 [49] of the same compound?
A: The GI50 was 9.12 µM.

Q: What about the TGI [49] of the same compound?
A: Its TGI is 17 µM.

Q: What about the GI50 [50] of the same compound?
A: Its GI50 is 1.59 µM.

Q: What about the TGI [50] of the same compound?
A: Its TGI is 6.47 µM.

Q: What about the GI50 [51] of the same compound?
A: The GI50 was 8.7 µM.

Q: What about the TGI [51] of the same compound?
A: The TGI was 17.3 µM.

Q: What about the GI50 [52] of the same compound?
A: Its GI50 is 10.8 µM.

Q: What about the TGI [52] of the same compound?
A: Its TGI is 25.6 µM.

Q: And the GI50 [53]?
A: The GI50 was 14.9 µM.

Q: What about the TGI [53] of the same compound?
A: The TGI was 46.7 µM.

Q: And the GI50 [54]?
A: Its GI50 is 4.65 µM.

Q: What about the TGI [54] of the same compound?
A: Its TGI is 13 µM.

Q: What about the GI50 [55] of the same compound?
A: The GI50 was 7.26 µM.

Q: And the TGI [55]?
A: Its TGI is 15.5 µM.

Q: And the GI50 [56]?
A: Its GI50 is 9.86 µM.

Q: What about the TGI [56] of the same compound?
A: The TGI was 19.2 µM.
